Test results: ChEMBL document CHEMBL3217659, “Synthesis and antifungal activity of 1,5-disubstituted-1,2,3-triazole containing fluconazole analogues” (Medchemcomm, 2012)
Converted amounts (≈) assume the structure as drawn.

Assays:
Candida parapsilosis = test: Antifungal activity against Candida parapsilosis after 48 hrs by microbroth dilution technique; type: functional
[1] = test system: Trichophyton mentagrophytes; test: Antifungal activity against Trichophyton mentagrophytes after 96 hrs by microbroth dilution technique; type: functional
Cryptococcus neoformans = test: Antifungal activity against Cryptococcus neoformans after 72 hrs by microbroth dilution technique; type: functional
Aspergillus fumigatus = test: Antifungal activity against Aspergillus fumigatus after 72 hrs by microbroth dilution technique; type: functional
Candida albicans = test: Antifungal activity against Candida albicans after 48 hrs by microbroth dilution technique; type: functional
Sporothrix schenckii = test: Antifungal activity against Sporothrix schenckii after 72 hrs by microbroth dilution technique; type: functional
L929 [2] = test: Cytotoxicity against mouse L929 cells up to 3.12 ug/ml after 24 hrs using Giemsa staining by phase contrast microscopy; type: cell-based; settings: l929, 24 h
L929 [3] = test: Cytotoxicity against mouse L929 cells at >3.12 ug/ml after 24 hrs using Giemsa staining by phase contrast microscopy; type: cell-based; settings: l929, 24 h
[4] = Lodderomyces parapsilosis, 48 h, read-out: MIC
[5] = Trichophyton mentagrophytes, 96 h, read-out: MIC
[6] = Cryptococcus neoformans, 72 h, read-out: MIC
[7] = Aspergillus fumigatus, 72 h, read-out: MIC
[8] = Candida albicans, 48 h, read-out: MIC
[9] = Sporothrix schenckii, 72 h, read-out: MIC

Compound | MIC (Candida parapsilosis; [4]) [µg/mL] | MIC [1, 5] [µg/mL] | MIC (Cryptococcus neoformans; [6]) [µg/mL] | MIC (Aspergillus fumigatus; [7]) [µg/mL] | MIC (Candida albicans; [8]) [µg/mL] | MIC (Sporothrix schenckii; [9]) [µg/mL] | MIC (Candida albicans) [µg/mL] | MIC (Sporothrix schenckii) [µg/mL] | MIC (Candida parapsilosis) [µg/mL] | MIC [1] [µg/mL] | MIC (Aspergillus fumigatus) [µg/mL] | Activity (L929 [2]) | Activity (L929 [3]) | MIC (Cryptococcus neoformans) [µg/mL]
CCCCCCc1cn(C[C@@](O)(Cn2cncn2)c2ccc(F)cc2F)nn1 | 0.19 (≈ 0.487 µM) | 6.25 (≈ 16 µM) | 50 (≈ 128 µM) | 50 (≈ 128 µM) | 0.0225 (≈ 0.0576 µM) | 0.78 (≈ 2 µM) | – | – | – | – | – | – | – | –
CCCCCCc1cn(C[C@](O)(Cn2cncn2)c2ccc(F)cc2F)nn1 | > 50 | 50 (≈ 128 µM) | 50 (≈ 128 µM) | > 50 | 50 (≈ 128 µM) | 50 (≈ 128 µM) | – | – | – | – | – | – | – | –
CCCCCCCCn1nncc1CC(O)(Cn1cncn1)c1ccc(F)cc1F (racemic) | 50 (≈ 119 µM) | 50 (≈ 119 µM) | 50 (≈ 119 µM) | > 50 | 0.39 (≈ 0.932 µM) | 6.25 (≈ 14.9 µM) | – | – | – | – | – | – | – | –
CCCCCCc1cnnn1CC(O)(Cn1cncn1)c1ccc(F)cc1F (racemic) | > 50 | 50 (≈ 128 µM) | 50 (≈ 128 µM) | 25 (≈ 64 µM) | – | – | 0.078 (≈ 0.2 µM) | 3.12 (≈ 7.99 µM) | – | – | – | – | – | –
CCCCCCCCn1cc(CC(O)(Cn2cncn2)c2ccc(F)cc2F)nn1 (racemic) | – | – | 25 (≈ 59.7 µM) | – | – | – | 0.007 (≈ 0.0167 µM) | 0.045 (≈ 0.108 µM) | 0.0112 (≈ 0.0268 µM) | 0.39 (≈ 0.932 µM) | 3.12 (≈ 7.46 µM) | Non-toxic | Toxic | –
CCCCCCc1cn(CC(O)(Cn2cncn2)c2ccc(F)cc2F)nn1 (racemic) | 0.39 (≈ 0.999 µM) | 12.5 (≈ 32 µM) | 25 (≈ 64 µM) | 25 (≈ 64 µM) | 0.09 (≈ 0.231 µM) | 0.78 (≈ 2 µM) | – | – | – | – | – | – | – | –
CCCCCCCCn1cc(CC(O)(Cn2cncn2)c2ccc(F)cc2F)nn1 (stereo in doubt; 2A) | – | – | – | – | – | – | 0.0011 (≈ 0.00263 µM) | 0.0225 (≈ 0.0538 µM) | 0.0011 (≈ 0.00263 µM) | 0.19 (≈ 0.454 µM) | – | – | – | –
CCCCCCCCn1cc(CC(O)(Cn2cncn2)c2ccc(F)cc2F)nn1 (stereo in doubt; 2B) | – | – | – | – | – | – | 12.5 (≈ 29.9 µM) | 12.5 (≈ 29.9 µM) | 50 (≈ 119 µM) | 25 (≈ 59.7 µM) | 50 (≈ 119 µM) | – | – | 25 (≈ 59.7 µM)
CCCCCCc1cnnn1CC(O)(Cn1cncn1)c1ccc(F)cc1F (stereo in doubt; 9A) | – | – | – | – | – | – | 0.039 (≈ 0.0999 µM) | 1.56 (≈ 4 µM) | 50 (≈ 128 µM) | – | >50 | – | – | 50 (≈ 128 µM)
CCCCCCc1cnnn1CC(O)(Cn1cncn1)c1ccc(F)cc1F (stereo in doubt; 9B) | – | – | – | – | – | – | >50 | >50 | – | 50 (≈ 128 µM) | – | – | – | >50
C[C@@H]1[C@H](O)[C@@H](C)/C=C/C=C/C=C/C=C/C=C/C=C/C=C/[C@H](O[C@@H]2O[C@H](C)[C@@H](O)[C@H](N)[C@@H]2O)C[C@@H]2O[C@](O)(C[C@@H](O)C[C@@H](O)[C@H](O)CC[C@@H](O)C[C@@H](O)CC(=O)O[C@H]1C)C[C@H](O)[C@H]2C(=O)O [AMPHOTERICIN B] | 0.12 (≈ 0.13 µM) | 0.12 (≈ 0.13 µM) | 0.06 (≈ 0.0649 µM) | 0.5 (≈ 0.541 µM) | 0.12 (≈ 0.13 µM) | 0.12 (≈ 0.13 µM) | – | – | – | – | – | – | – | –
OC(Cn1cncn1)(Cn1cncn1)c1ccc(F)cc1F [FLUCONAZOLE] | 1 (≈ 3.27 µM) | 1 (≈ 3.27 µM) | 1 (≈ 3.27 µM) | 2 (≈ 6.53 µM) | 0.5 (≈ 1.63 µM) | 2 (≈ 6.53 µM) | – | – | – | – | – | – | – | –
